Results on 2 compounds are retold here after patent US20100331282A1, “PYRIDINE DERIVATIVE CONTAINING ((PHOSPHONOOXY)METHYL)PYRIDINIUM RING, AND ANTIFUNGAL AGENT CONTAINING THESE DERIVATIVE” (priority 2009, published 2010).

A word on the solubility: it is the concentration that dissolves in the medium under given conditions.

In brackets after ≈: the same amount, converted by molar mass. A value given as a limit tells only on which side of the number the result lay.

The nature of series [1]: Conversion into parent compound (active form) in human liver S9 fraction. The format is in vitro ADME. To be noted: human liver S9 reaction solution, 0.2 mg/mL protein, 10 μmol/L compound, pH 7.4, 37° C., 0, 30, 60 minutes, LC-MS (FIG. 1). The method, then: (§1) A suspension (pH of 7.4) containing human and monkey liver S9 fractions (with a protein concentration of 0.22 mg/mL), 0.5 mmol/L magnesium chloride, and 100 mmol/L tris-HCl was prepared over ice (various reaction solutions A). 30 μL of a 100 μmol/mL aqueous solution of the compound according to the present invention (the compound of Example 1) was added to the various reaction solutions A (for a final compound concentration of 10 μmol/L) to obtain various liver S9 reaction solutions (with a final protein concentration of 0.2 mg/mL), and these were stored on ice until (2) was carried out. A control sample was prepared (reaction buffer solution) by adding 30 μL of a […] aqueous solution of the compound according to the present invention (the compound of Example 1) to 0.27 mL of a buffer (pH of 7.4) containing 0.5 mmol/L magnesium chloride and 100 mmol/L tris-HCl. […]
(§2) (3) The Concentrations of the Compound According to the Present Invention (the Compound of Example 1) and the Parent Compound (the Compound of Reference Example 1) in the Reaction Solution were Quantified by LC-MS.
(§3) The concentrations of the compound according to the present invention (the compound of Example 1) and the parent compound (the compound of Reference Example 1) in the reaction solution were measured by the method described in 2. above. […]

Series [2] can be described thus: Comparative test of solubility in water (Britton-Robinson buffer). It is filed as physicochemical. Particulars: aqueous buffer, Britton-Robinson buffer (ion strength of 0.3) at 25° C. The method, then: 3-(3-(4-(Pyridin-2-ylmethoxy)-benzyl)-isoxazol-5-yl)-pyridin-2-ylamine described in Reference Example 1, which is the parent compound, and the compound of Example 1 were compared for solubility in a Britton-Robinson buffer (ion strength of 0.3) at 25° C.

The nature of series [3]: Conversion into parent compound (active form) in monkey liver S9 fraction. The format is in vitro ADME. To be noted: monkey liver S9 reaction solution, 0.2 mg/mL protein, 10 μmol/L compound, pH 7.4, 37° C., 0, 30, 60 minutes, LC-MS (FIG. 2). Here is the method: as §1, §2, §3
Series [4] has as its system C. albicans CAF2-1 strain. Nature of the series: Anti-Candida activity (MIC measurement). It is filed as cell-based. Particulars: CAF21STRAIN, RPMI1640 medium, 42-48 hours at 35° C., visual inspection, read-out: Anti-Candida (minimum inhibitory concentration, MIC). Here is the method:
(§4) For the C. albicans CAF2-1 strain, a fungal suspension from a standing culture for 48 hours at 30° C. in a Sabouraud dextrose liquid culture medium (SDB) was diluted with RPMI1640 medium to adjust a fungal suspension of 1.2×10^3 cells/mL. For the A. fumigatus Tsukuba strain, −80° C. stored strain was diluted with RPMI1640 medium to adjust to a fungal suspension of 4.5×10^3 cells/mL.
(§5) Using a U-bottomed 96 well plate, 8 samples/plate (A to H) of sample dilution solutions were prepared. On the 2nd to 12th rows were dispensed 10 μl of dimethyl sulfoxide solution. Weighted sample was dissolved in dimethyl sulfoxide to prepare a 2.5 mg/mL solution, 20 μl of this solution was added to the first row of the prepared plate, and 12 steps of two-folded step dilutions (10 μl of solution+10 μl of dimethyl sulfoxide solution) were performed on the plate. This sample dilution solution was dispensed in the amount of 1 μl to a flat-bottomed 96 well plate for MIC measurement to prepare a sample dilution plate.
(§6) The fungal suspension prepared in (1) was used in the amount of […] to inoculate the flat-bottomed 96 well plate containing 1 μL/well of the test compound dilution prepared in (2), and a standing culture was carried out aerobically for 42-48 hours at 35° C.

Series [5] concerns A. fumigatus Tsukuba strain. Nature of the series: Anti-Aspergillus activity (MIC measurement). It is filed as cell-based. To be noted: RPMI1640 medium, 42-48 hours at 35° C., visual inspection, read-out: Anti-Aspergillus activity (minimum inhibitory concentration, MIC). Here is the method: as §4, §5, §6

In the case of `Nc1ncccc1-c1cc(Cc2ccc(OCc3cccc[n+]3COP(=O)([O-])O)cc2)no1` [Example 1, 2-((4-((5-(2-Amino-3-pyridinyl)-3-isoxazolyl)methyl)phenoxy)methyl)-1-((phosphonooxy)methyl)pyridinium mono-trifluoroacetate], the “Conversion into the parent compound (compound of Reference Example 1)” value in series [1] and in series [3] was “converted into the parent compound” each time. Further, the solubility in series [2] (pH 3), in series [2] (pH 7) and in series [2] (pH 9) was above 70 mg/mL in each case.
Turning to `Nc1ncccc1-c1cc(Cc2ccc(OCc3ccccn3)cc2)no1` [Reference Example 1, 3-(3-(4-(Pyridin-2-ylmethoxy)-benzyl)-isoxazol-5-yl)-pyridin-2-ylamine], the values for the solubility in series [2] (pH 3), in series [2] (pH 7) and in series [2] (pH 9) were 0.4 mg/mL (≈ 1120 µM), below 0.1 mg/mL and below 0.1 mg/mL, respectively. Further, the results for the MIC in series [4] and in series [5] were 0.2 mg/L (≈ 0.558 µM) and 0.39 mg/L (≈ 1.09 µM), respectively.
